This is an account of results in patent publication US8088822B2, “Use of fenretinide or bioactive derivatives thereof and pharmaceutical compositions comprising the same” (priority 2008, dated 2012).

For one experiment, the system named is CML CD34+ cells. Kind of experiment: Colony forming assay in primary CML CD34+ cells. Type of experiment: cell-based, human. The note with it: 14 days; for inhibition at 2 µM / inhibition at 4 µM: Homo sapiens, 336 h; for inhibition at 2 µM: 2 μM fenretinide; for inhibition at 4 µM: 4 μM fenretinide. An excerpt: Fresh bone marrow (BM) cells were obtained from 38 patients with CML and 5 non-leukemic donors, 25 AML, 17 ALL, and 8 normal specimens with informed consent according to the Declaration of Helsinki. Approval was obtained from Institutional Review Board at the School of Medicine in Shanghai Jiao Tong University. BM mononuclear cells were isolated by Ficoll density gradient centrifugation (Shanghai Second Reagent Factory, Shanghai, China). CD34^+ Cell were selected using EasySep® Human CD34 Positive Selection kit (Stem Cell Technologies, Vancouver, BC, Canada) according to the manufacturer's instructions. […] The CD34^+ cells were cultured in a serum-free medium (StemPro 34; Gibco BRL, Gaithersburg, Md.) supplemented with growth factors (PeproTech, London, United Kingdom) (20). The growth factors consisted of GM-CSF (200 pg/mL), G-CSF (1 ng/mL); SCF (200 pg/mL); LIF (50 pg/mL), MIP-1α (200 pg/mL) and IL-6 (1 ng/mL).
A quantity of 1000 CD34^+ cells were plated in semisolid methylcellulose-based media (Methocult H4434: Stem Cell Technologies, Vancouver, BC, Canada). After incubation at 37° C. in a fully humidified atmosphere of 5% CO2 for 14 days, granulocyte macrophage-colony-forming units (CFU-GM), erythroid burst-forming units (BFU-E), granulocyte, erythrocyte and monocyte, megakaryocyte-colony-forming units (CUF-GEMM) were counted. Only clusters with >50 cells were counted as a colony.
We further performed study to examine the effects of fenretinide on colony forming in primary CML cells derived from 38 bone marrow specimens of CML patients (TABLE 1). First, CML CD34^+ Cells were isolated using EasySep® Human CD34 Positive Selection kit (Stem Cell Technologies, Vancouver, BC, Canada). Upon treated with 2 μM and 4 μM fenretinide, colony forming assays were performed respectively on granulocyte macrophage-colony-forming units (CFU-GM), erythroid burst-forming units (BFU-E), granulocyte, erythrocyte and monocyte, megakaryocyte-colony-forming units (CFU-GEMM).

In a further experiment the test system is NRF2 and HSF1. Kind of experiment: Western blot of NRF2 and HSF1 in nuclear extracts of NB4 cells. Type of experiment: cell-based. The conditions noted are these: 1 μM fenretinide, within 6 hours. An excerpt:
Transcriptome analysis of fenretinide-induced apoptosis in leukemia cell lines facilitated in-depth mining of biological information relevant to oxidative stress-mediated apoptosis, including the prediction of upstream transcription factors potentially involved in gene regulation. Of several dozens of transcriptional regulators predicted, stress-responsive transcription factors NRF2 and HSF1 are of particular interest for understanding how oxidative signaling is translated into downstream effects. NRF2 is known as a key regulator of intracellular redox balance, activating genes encoding antioxidative proteins under oxidative stress (Jaiswal, 2004; D'Autreaux and Toledano, 2007). Although HSF1 is commonly recognized as a heat-shock motivated transcription factor (Hayashida et al., 2006), it can also be activated by oxidative stress under certain circumstances (Ahn and Thiele, 2003). We therefore further investigated the temporal abundance and spatial localization of there two stress-responsive transcription factors during fenretinide-induced apoptosis in NB4 cells. […] The induction of NRF2 was extended beyond the 24 hour whereas HSF1 induction was terminated at this time point. […] Also, nuclear gathering of NRF2 was sustained beyond the 24 hour treatment whereas that of HSF1 was terminated. […]
Background: A western blot detects proteins with antibodies after separation by electrophoresis.

Setting [1] is: read-out: inhibition of BFU-E number.
[2] abbreviates: CFU-GM, read-out: inhibition of CFU-GM number.

Like-named read-outs stand apart in the source and are kept apart here.

One may read the inhibition as the drop in the measured response relative to a control, in per cent. Turning to `CC1=C(/C=C/C(C)=C/C=C/C(C)=C/C(=O)Nc2ccc(O)cc2)C(C)(C)CCC1` [fenretinide, N-(4-hydroxyphenyl)retinamide], the figures for the inhibition at 2 µM in the experiment on CML CD34+ cells (setting [1]) and with CML CD34+ cells (setting [2]) were 24% and 19%, respectively. Also, the inhibition at 4 µM in the experiment on CML CD34+ cells (setting [1]) worked out at 66%; with CML CD34+ cells (setting [2]), 36 ± 9%. Also, the “GFU-GEMM formed by the more primitive progenitor cells” value with CML CD34+ cells (fenretinide 2 μM and 4 μM) is “could not be detected”. The “protein levels of NRF2 and HSF1 in nuclear extracts” value with NRF2 and HSF1 is on record as “markedly elevated”.
